pIC50, pKi: −log10 of the molar value.
Legend:
MMP-9 [1] = target: T1, MMP-9 (Homo sapiens, UniProt P14780); assay: In vitro MMP inhibition, IC50 determination (fluorogenic substrate I); assay type: biochemical; settings: value in parentheses; read-out: MMP-9 (IC-50)
T1 construct: made in house; host or cells: MMP-9-transfected HT1080 cells (spent media)
Procedure: Several hydroxamic acids and salts thereof were analyzed in in vitro assays to determine their ability to inhibit the MMP cleavage of peptide substrates. […] and IC50 constants were calculated from the assayed hydroxamic acid-MMP interactions. Human recombinant MMP-1, MMP-2, MMP-9, MMP-13, and MMP-14 were used in this assay. All enzymes were prepared in Assignee's laboratories following usual laboratory procedures. Protocols for the preparation and use of these enzymes are available in the scientific literature. See, e.g., Enzyme Nomenclature (Academic Press, San Diego, Calif., 1992) (and the citations therein). See also, Freije et al., “Molecular cloning and expression of collagenase-3, a novel human matrix metalloproteinase produced by breast carcinomas,” J Biol. Chem., 269(24), 16766-16773 (1994). The MMP-9 proenzyme was purified by gelatin Sepharose chromatography from spent media of MMP-9-transfected HT1080 cells provided by Dr. Howard Welgus of Washington University (St. Louis, Mo.). All MMPs were activated using 4-aminophenylmercuric acetate (“APMA”, Sigma Chemical, St. Louis, Mo.) or trypsin. MMP-9 also was activated using human recombinant MMP-3 (purified in Assignee's laboratory following standard cloning and purification techniques). […] Substrate (I) was purchased from Baychem (Redwood City, Calif.), and substrate II was prepared Assignee's laboratory. Substrate I was used in the IC50 determination assays, while substrate II was used in the Ki determination assays. In the absence of MMP inhibitory activity, either substrate is cleaved at the Gly-Leu peptide bond. […] The stock solutions of the assayed hydroxamic acids (or salts thereof) were prepared in 1% dimethyl sulfoxide (DMSO). […] The experiment controls contained the same amount of Buffer A/DMSO as the assayed sample, but contained no hydroxamic acid (or salt thereof). The assays from which the IC50 determinations were made were performed as follows. […] Louis, Mo.). The assayed hydroxamic acid samples were incubated in MicrofluorTM White Plates (Dynatech, Chantilly, Va.) and analyzed on a Perkin Elmer […] plate reader (Norwalk, Conn.). The excitation wavelength was 328 nm, and the emission wavelength-415 nm. […] As stated in the previous paragraph, samples containing varying concentrations of the same assayed hydroxamic acid were prepared. Inhibition was measured as a reduction in fluorescent intensity as a function of MMP inhibitor concentration. […] All values in Table 2 are given in nM units. The IC50 measurements are in parenthesis.

MMP-9 [2] = target: T1, MMP-9; assay: In vitro MMP inhibition, Ki determination (fluorogenic substrate II); assay type: biochemical; settings: value outside parentheses
Method in brief: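 HT1080-derived MMP-9, activated with APMA, trypsin or MMP-3, incubated 1 hr at room temperature with inhibitor and 4 μM fluorogenic substrate II (at or below Km) in pH 7.5 Tris/NaCl/CaCl2 buffer; ex 330/em 420 nm. Ki from Morrison-equation regression, without substrate correction.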

T1 sequence (P14780 107-707 limits assumed): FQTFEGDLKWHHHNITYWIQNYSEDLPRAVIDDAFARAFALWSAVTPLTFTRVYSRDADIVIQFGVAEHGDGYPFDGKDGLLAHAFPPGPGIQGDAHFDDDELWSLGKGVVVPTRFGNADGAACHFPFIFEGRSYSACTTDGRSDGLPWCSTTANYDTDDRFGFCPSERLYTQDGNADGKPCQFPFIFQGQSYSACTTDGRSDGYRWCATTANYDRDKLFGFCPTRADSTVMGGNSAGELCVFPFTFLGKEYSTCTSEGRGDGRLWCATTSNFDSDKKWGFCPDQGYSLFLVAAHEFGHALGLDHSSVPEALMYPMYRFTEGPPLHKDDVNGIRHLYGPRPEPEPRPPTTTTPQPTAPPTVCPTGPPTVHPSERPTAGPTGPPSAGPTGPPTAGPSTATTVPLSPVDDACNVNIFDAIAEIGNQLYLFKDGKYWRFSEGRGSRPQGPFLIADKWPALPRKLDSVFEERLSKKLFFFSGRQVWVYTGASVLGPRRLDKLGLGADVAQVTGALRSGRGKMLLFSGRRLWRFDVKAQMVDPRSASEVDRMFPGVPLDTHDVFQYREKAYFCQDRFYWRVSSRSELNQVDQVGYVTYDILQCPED

pIC50 (MMP-9 [1]) | pKi (MMP-9 [2]) | SMILES
10.00 | 7.77 | CCCCOc1ccc(N2CCN(S(=O)(=O)C3(C(=O)NO)CCN(c4ccc(C)cc4)CC3)CC2)cc1 [Example 295]
8.52 | 8.52 | CCCCOc1ccc(N2CCN(S(=O)(=O)C3(C(=O)NO)CCN(CC4CC4)CC3)CC2)cc1 [Example 298]
9.52 | 8.83 | C#CCN1CCC(C(=O)NO)(S(=O)(=O)N2CCN(c3ccc(OCCCC)cc3)CC2)CC1 [Example 303]
7.51 | 7.71 | COCCOc1ccc(N2CCN(S(=O)(=O)C3(C(=O)NO)CCN(C4CC4)CC3)CC2)cc1F [Example 297]
9.22 | 8.04 | CCCCOc1ccc(N2CCN(S(=O)(=O)C3(C(=O)NO)CCN(C4CC4)CC3)CC2)cc1 [Example 301]
6.94 | 7.32 | CCCCOc1ccc(N2CCN(S(=O)(=O)C3(C(=O)NO)CCN(c4ccc(C)cc4)CC3)CC2)cc1F [Example 296]

— US20050209278A1, “Piperidinyl- and piperazinyl-sulfonylmethyl hydroxamic acids and their use as protease inhibitors” (priority 2002, published 2005)
